Patent US20070043105A1, “Preventive for cerebal stroke recurrence” (ASTELLAS PHARMA INC., priority 2003, published 2007)

Columns and labels:
[1] = test system: hypertension cases or CHD-having cases; details: cited from earlier work
[2] = test system: stroke-prone spontaneously hypertensive rats (SHR-SP); experiment: Survival rate after onset of the stroke in SHR-SP rats; type: in vivo, rat; details: for survival rate: control 3/28 (10.7%)
Experimental: (§1) The dose was 3 and 30 mg/kg, and it was repeatedly orally administered once a day.
(§2) SHR-SP male rats (9-week age when bought, by Nippon SLC) were bred under a constant-temperature and constant-humidity condition. The feed was solid SP feed for breeding SHR-SP rats; and every rat was kept to freely drink tap water as automatically supplied thereto. The body weight of each rat was measured everyday, and the rats were checked for an cerebral stroke attack (Stroke, Vol. 20(9), pp. 1212-1218, 1989; Journal of Pharmacology & Experimental Therapeutics, Vol. 291(2), pp. 569-575, 1999). The cerebral stroke attack in the rats of this line is accompanied by neurologic symptoms such as paralysis or hemiplegia (European Journal of Pharmacology, Vol. 192 (1), pp. 165-167, 1991), and abnormal body weight change such as rapid body weight reduction. The abnormal body weight change may be considered to be caused by the deterred drinking and eating owing to the cerebral stroke attack (Brain Research, Vol. 452 (1-2), pp. 323-328, 1988; Stroke, Vol. 20(8), pp. 1089-1091, 1989; European Journal of Pharmacology, Vol. 192 (1), pp. 165-167, 1991).
Vehicle or atorvastatin was orally administered everyday, once a day from day of the first stroke to death.
(§3) A Steel test was used to the neurologic symptom and recurrence scores, and a Log-rank test was applied to the survival rate.

[3] = test system: stroke-prone spontaneously hypertensive rats (SHR-SP); experiment: Blood pressure, heart beat and total cholesterol level in SHR-SP rats after primary stroke attack; type: in vivo, rat; details: administration groups (3 and 30 mg/kg/day), within 2 weeks after the primary cerebral stroke attack
[4] = test system: stroke-prone spontaneously hypertensive rats (SHR-SP); experiment: Cerebral stroke recurrence score (daily body weight change) after primary stroke attack in SHR-SP rats; type: in vivo, rat; details: vs control
Experimental: as §1, §2, §3

eNOS = details: cited from earlier work
[5] = test system: stroke-prone spontaneously hypertensive rats (SHR-SP); experiment: Cerebral stroke recurrence-accompanied neurologic symptom score in SHR-SP rats; type: in vivo, rat
Description: Regarding the neurologic symptom, both the fore-legs and both the hind legs of a test case are checked for the paralysis and the activity depression as the items of the neurologic symptoms thereof, and they are scored depending on the degree of the symptoms. Concretely, according to a reference (European Journal of Pharmacology, 192, 165-167, 1991), they are normal state (score 0), light symptom (score 1), middle symptom (score 2) and heavy symptom (score 3); and the final data of an individual are the total of the scores of these items. The maximum score is 15.
as §1, §2
The rats were checked for their neurologic symptoms on the day the first stroke occurred and 7 and 14 days later by the modified method of Yamamoto (Brain Research, Vol. 452(1-2), pp. 323-328, 1988; Stroke, Vol. 20(8), pp. 1089-1091, 1989; European Journal of Pharmacology, Vol. 192(1), pp. 165-167, 1991). Both the fore-legs and both the hind legs of the rats were checked for the paralysis and the activity depression as the items of the neurologic symptoms thereof. […] The final data of the individual rat are the total of the scores of these items. The maximum score is 15.
as §3

SHR-SP rats = details: administration before attack; cited from earlier work
[6] = 3 mg/kg/day p.o., day 14 after the primary cerebral stroke attack, Steel test
[7] = 30 mg/kg/day p.o., day 7 after the primary cerebral stroke attack
[8] = 30 mg/kg/day p.o., day 14 after the primary cerebral stroke attack, Steel test

## CC(C)c1c(C(=O)Nc2ccccc2)c(-c2ccccc2)c(-c2ccc(F)cc2)n1CC[C@@H](O)C[C@@H](O)CC(=O)O [atorvastatin, (-)-(3R,5R)-7-[2-(4-fluorophenyl)-5-isopropyl-3-phenyl-4-phenylcarbamoyl-1H-pyrrol-1-yl]-3,5-dihydroxyheptanoic acid]
[1]
  primary preventive effect for cerebral stroke: effective for preventing a primary cerebral stroke
[2]; 3 mg/kg/day p.o., day 35 after the primary cerebral stroke attack (6/29)
  survival rate: 20.7%
[2]; 30 mg/kg/day p.o.
  improvement of survival rate vs control, Log-rank test: significant difference
[2]; 30 mg/kg/day p.o., day 35 after the primary cerebral stroke attack (8/24)
  survival rate: 33.3%
[3]
  diastolic pressure vs control group: no significant difference
  heart beat vs control group: no significant difference
  mean blood pressure vs control group: no significant difference
  systolic pressure vs control group: no significant difference
  total cholesterol level vs control group: no significant difference
[4]; [6]
  cerebral stroke recurrence symptoms (recurrence score): significant improvement
[4]; [7]
  cerebral stroke recurrence symptoms (recurrence score): improved symptoms
[4]; [8]
  cerebral stroke recurrence symptoms (recurrence score): significant improvement
eNOS
  eNOS activity: increases eNOS activity
[5]; 3 mg/kg/day p.o., day 7 after the primary cerebral stroke attack
  neurologic symptoms (score): improved
[5]; [6]
  neurologic symptoms (score): significant improvement
[5]; 30 mg/kg administration group, day 14 after the primary cerebral stroke attack
  level of neurologic symptoms reached: restored nearly to the ordinary level
[5]; [7]
  neurologic symptoms (score): improved
[5]; [8]
  neurologic symptoms (score): significant improvement

## COCc1c(C(C)C)nc(C(C)C)c(/C=C/[C@@H](O)C[C@@H](O)CC(=O)O)c1-c1ccc(F)cc1 [serivastatin]
SHR-SP rats
  prevention of cerebral stroke attack: effective for prevention of cerebral stroke attack
  survival rate: effective for increasing a survival rate
